Patent US20210283261A1, “Compositions and Methods for Treating ALK-Mediated Cancer” (ICAHN SCHOOL OF MEDICINE AT MOUNT SINAI, priority 2017, published 2021)

Tests used:
Format in all cases: cell-based
NPM-ALK fusion protein = molecular target: T1, NPM-ALK fusion protein (Homo sapiens, UniProt Q9UM73); assay: Western blot of NPM-ALK fusion protein levels in SU-DHL-1 cells; settings: for significantly reduced ALK fusion protein levels (degraders vs negative controls) / effect on NPM-ALK fusion protein levels, concentration dependence: 16 h; for effect on NPM-ALK fusion protein levels, concentration dependence: SU-DHL-1 cells, 1, 3, 10, 30 or 100 nM; for Dmax at 0.03 µM: read-out: ALK fusion protein degradation, SU-DHL-1 (30 nM)
T1 construct: endogenous in cells; host or cells: SU-DHL-1; the other entry of the earlier key: NPM1 (P06748, Nucleophosmin)
Procedure: (§1) Cells were cultured in a 37° C. incubator with 5% CO2.
(§2) Cells were washed with cold PBS once and lysed in 1× Laemmli loading buffer directly. […] Membrane was blocked in 5% milk in Tris-buffered saline and Tween 20 (TBST) for 1 h at room temperature, followed by incubation with a primary antibody overnight at 4° C., and a horseradish peroxidase (HRP)-conjugated secondary antibody for 1 h at room temperature. The membrane was imaged by a ChemiDoc MP imaging system (BIO-RAD). Antibodies against GAPDH (abeam), Phospho-ALK (Tyr1507), ALK (Cell Signaling Technology), Tubulin (Santa Cruz) were purchased commercially.
SU-DHL-1 suspension cells were seeded in 12-well plates at a density of 6×10^5/mL and treated with DMSO or indicated compounds at 30 nM or 100 nM for indicated time.
SU-DHL-1 cells were seeded in 12-well plates at a density of 4×10^5/mL and treated with DMSO or indicated serial dilutions of compounds for 16 h. The NPM-ALK fusion protein levels were determined by Western blot and normalized against GPADH (right panel).

ALK fusion protein = molecular target: T2, ALK fusion protein (Homo sapiens, UniProt Q9UM73); assay: Western blot of ALK fusion protein levels in NCI-H3122 cells; settings: for significantly reduced ALK fusion protein levels (degraders vs negative controls): 16 h; for Dmax at 0.5 µM: NCI-H3122, NCI-H3122 cells, read-out: ALK fusion protein degradation, NCI-H3122 (500 nM)
T2 construct: endogenous in cells; host or cells: NCI-H3122; the other entry of the earlier key: EML4 (Q9HC35, Echinoderm microtubule-associated protein-like 4)
Procedure: SU-DHL-1, NCI-H3122 and NCI-H2228 cells were cultured in RPMI-1640 medium supplemented with 10% fetal bovine serum, 50 μg/mL penicillin and streptomycin. Cells were cultured in a 37° C. incubator with 5% CO2.
Cells were washed with cold PBS once and lysed in 1× Laemmli loading buffer directly. Lysates were heated at 99° C. for […], and resolved on 4-15% precast SDS-PAGE (BIO-RAD) and transferred onto PVDF membrane. Membrane was blocked in 5% milk in Tris-buffered saline and Tween 20 (TBST) for 1 h at room temperature, followed by incubation with a primary antibody overnight at 4° C., and a horseradish peroxidase (HRP)-conjugated secondary antibody for 1 h at room temperature. The membrane was imaged by a ChemiDoc MP imaging system (BIO-RAD). Antibodies against GAPDH (abeam), Phospho-ALK (Tyr1507), ALK (Cell Signaling Technology), Tubulin (Santa Cruz) were purchased commercially. […]

[1] = molecular target: T3, EML4-ALK v3 fusion protein (Homo sapiens, UniProt Q9UM73); assay: Western blot of EML4-ALK v3 fusion protein levels in NCI-H2228 cells; settings: 16 h; for effect on EML4-ALK fusion protein levels, concentration dependence: NCI-H2228 cells, 1, 3, 10, 30 or 100 nM
T3 construct: endogenous in cells; host or cells: NCI-H2228
Procedure: as §1, §2
Cells were 70% confluent and treated with DMSO or indicated serial dilutions of compounds for 16 h. The EML4-ALK fusion protein levels were determined by Western blot and normalized against GPADH (right panel).

SU-DHL-1 cells = assay: Cell viability assay in SU-DHL-1 cells; settings: Homo sapiens, 60 h, 2.5 days, CellTiter-Glo, read-out: GI50 (drug concentration that results in 50% growth inhibition)
Procedure: SU-DHL-1 cells were seeded in 96-well plates at a density of 1×10^4 cells per well, in triplicate. Treated cells with DMSO or indicated serial dilutions of compounds for 2.5 days. Cell growth/survival was measured by using the CellTiter-Glo luminescent cell viability assay following the manufacturer's instructions (Promega) or CCK8 cell viability assay (Sigma). Data was analyzed by using the GraphPad Prism software, Error bars represent ±SD for triplicate experiments.
SU-DHL-1 cells were seeded in 96-well plates at a density of 1×10^4 cells per well, in triplicate. Treated cells with DMSO or indicated serial dilutions of compounds for 2.5 days. Cell growth/survival was measured by using the CellTiter-Glo luminescent cell viability assay. Data was analyzed by using the GraphPad Prism software, Error bars represent ±SD for triplicate experiments (left panel).
SU-DHL-1 cells were seeded in 96-well plates at a density of 5000 cells per well, in triplicate. The cells were treated with DMSO or indicated serial dilutions of compounds for 3 days. Cell growth was measured using the CellTiter-Glo luminescent cell viability assay. Data were analyzed using the GraphPad Prism.
SU-DHL-1 and NCI-3122 cells were treated with DMSO or indicated serial dilutions of compounds for 3 days. Data were analyzed using the GraphPad Prism.

ALK = assay: Characterization of ALK degraders in ALCL and NSCLC cells (summary); settings: summary statement
From the text: Specific exemplary ALK degraders/disruptors were characterized in various different anaplastic large cell lymphoma (ALCL) cells and non-small cell lung cancer (NSCLC) cells (Examples 4-19, FIGS. 1-18). […] This efficacy in suppressing ALK expression and ALK activity correlated with efficacy in inhibiting cancer cell proliferation.

[2] = SU-DHL-1 cells, 30 nM, Western blot

T3 sequence (Q9UM73 1058-1620 limits assumed): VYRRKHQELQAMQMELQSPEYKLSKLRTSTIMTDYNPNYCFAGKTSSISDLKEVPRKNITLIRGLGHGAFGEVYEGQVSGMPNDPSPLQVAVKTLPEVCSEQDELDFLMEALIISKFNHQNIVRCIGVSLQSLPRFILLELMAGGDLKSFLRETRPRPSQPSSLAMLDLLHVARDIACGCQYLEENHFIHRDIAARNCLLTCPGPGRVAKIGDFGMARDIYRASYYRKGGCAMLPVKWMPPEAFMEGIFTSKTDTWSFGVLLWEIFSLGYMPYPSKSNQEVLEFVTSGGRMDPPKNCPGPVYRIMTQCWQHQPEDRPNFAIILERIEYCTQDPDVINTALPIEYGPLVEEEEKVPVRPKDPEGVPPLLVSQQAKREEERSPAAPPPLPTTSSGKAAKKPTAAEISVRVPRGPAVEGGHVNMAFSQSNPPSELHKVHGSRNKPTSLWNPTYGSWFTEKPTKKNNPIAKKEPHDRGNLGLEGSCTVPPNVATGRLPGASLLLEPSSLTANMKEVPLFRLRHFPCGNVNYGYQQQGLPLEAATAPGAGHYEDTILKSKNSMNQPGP
T2 sequence (Q9UM73 with tags, fused parts or gaps): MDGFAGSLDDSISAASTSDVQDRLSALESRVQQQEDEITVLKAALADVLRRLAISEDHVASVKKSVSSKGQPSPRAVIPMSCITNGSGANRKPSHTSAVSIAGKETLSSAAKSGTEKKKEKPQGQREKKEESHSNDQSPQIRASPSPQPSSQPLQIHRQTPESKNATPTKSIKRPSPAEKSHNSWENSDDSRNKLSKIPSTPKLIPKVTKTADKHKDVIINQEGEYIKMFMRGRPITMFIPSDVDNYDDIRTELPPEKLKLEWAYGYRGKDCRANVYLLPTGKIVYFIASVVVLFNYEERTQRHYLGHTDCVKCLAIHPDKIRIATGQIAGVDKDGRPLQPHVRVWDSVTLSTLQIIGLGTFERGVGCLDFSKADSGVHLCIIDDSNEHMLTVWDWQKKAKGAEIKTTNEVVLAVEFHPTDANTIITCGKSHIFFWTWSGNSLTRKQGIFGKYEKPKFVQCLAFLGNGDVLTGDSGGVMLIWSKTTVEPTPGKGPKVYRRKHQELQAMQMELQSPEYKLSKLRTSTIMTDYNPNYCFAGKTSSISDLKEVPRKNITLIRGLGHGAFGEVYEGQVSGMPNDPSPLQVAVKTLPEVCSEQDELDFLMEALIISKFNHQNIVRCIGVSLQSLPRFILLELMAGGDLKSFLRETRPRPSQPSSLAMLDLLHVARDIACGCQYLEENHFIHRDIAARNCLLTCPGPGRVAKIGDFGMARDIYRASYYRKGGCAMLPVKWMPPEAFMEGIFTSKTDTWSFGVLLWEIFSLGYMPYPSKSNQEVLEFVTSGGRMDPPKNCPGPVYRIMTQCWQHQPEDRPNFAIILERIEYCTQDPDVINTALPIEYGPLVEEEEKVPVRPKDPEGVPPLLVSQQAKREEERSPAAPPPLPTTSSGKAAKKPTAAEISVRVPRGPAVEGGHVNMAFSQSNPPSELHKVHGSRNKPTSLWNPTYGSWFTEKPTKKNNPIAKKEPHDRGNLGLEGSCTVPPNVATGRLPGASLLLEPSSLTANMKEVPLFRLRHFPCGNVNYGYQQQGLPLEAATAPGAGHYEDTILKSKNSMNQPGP
T1 sequence (Q9UM73 with tags, fused parts or gaps): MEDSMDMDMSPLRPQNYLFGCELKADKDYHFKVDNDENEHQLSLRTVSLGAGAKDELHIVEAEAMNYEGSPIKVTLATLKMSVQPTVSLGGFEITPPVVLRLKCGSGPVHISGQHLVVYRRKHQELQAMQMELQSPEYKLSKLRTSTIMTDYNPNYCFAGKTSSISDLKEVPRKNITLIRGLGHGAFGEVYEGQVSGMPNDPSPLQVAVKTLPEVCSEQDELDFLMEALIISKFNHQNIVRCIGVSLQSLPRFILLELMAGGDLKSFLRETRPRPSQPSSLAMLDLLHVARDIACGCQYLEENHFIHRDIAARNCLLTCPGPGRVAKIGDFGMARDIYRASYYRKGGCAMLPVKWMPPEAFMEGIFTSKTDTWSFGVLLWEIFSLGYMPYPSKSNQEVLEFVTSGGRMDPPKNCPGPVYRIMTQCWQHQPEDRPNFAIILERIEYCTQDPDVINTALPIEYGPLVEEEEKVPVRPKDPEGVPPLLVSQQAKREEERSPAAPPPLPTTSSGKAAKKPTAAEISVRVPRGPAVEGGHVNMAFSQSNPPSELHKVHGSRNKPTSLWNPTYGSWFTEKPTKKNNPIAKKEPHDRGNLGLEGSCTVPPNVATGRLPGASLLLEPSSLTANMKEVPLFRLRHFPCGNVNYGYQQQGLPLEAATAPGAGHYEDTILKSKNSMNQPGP

| Compound | significantly reduced ALK fusion protein levels (degraders vs negative controls) (NPM-ALK fusion protein; SU-DHL-1 cells) | significantly reduced ALK fusion protein levels (degraders vs negative controls) (ALK fusion protein; NCI-H3122 cells) | effect on NPM-ALK fusion protein levels, concentration dependence (NPM-ALK fusion protein) | effect on EML4-ALK fusion protein levels, concentration dependence [1] | Dmax at 0.5 µM (ALK fusion protein; 500 nM, Western blot) [%] | other results |
| --- | --- | --- | --- | --- | --- | --- |
| Cc1cc(Nc2ncc(Cl)c(Nc3ccccc3S(=O)(=O)C(C)C)n2)c(OC(C)C)cc1C1CCN(C(=O)COCCOCC(=O)N[C@H](C(=O)N2CC(O)C[C@H]2C(=O)NCc2ccc(-c3scnc3C)cc2)C(C)(C)C)CC1 (stereo in doubt) [HC58-110, (2S,4S)-1-((S)-2-(2-(2-(2-(4-(4-((5-Chloro-4-((2-(isopropylsulfonyl)phenyl)amino)pyrimidin-2-yl)amino)-5-isopropoxy-2-methylphenyl)piperidin-1-yl)-2-oxoethoxy)ethoxy)acetamido)-3,3-dimethylbutanoyl)-4-hydroxy-N-(4-(4-methylthiazol-5-yl)benzyl)pyrrolidine-2-carboxamide] | not | not |  |  |  | ALK fusion protein degradation, NCI-H3122 (500 nM) (ALK fusion protein; NCI-H3122 cells, 500 nM, Western blot): − (Protein degradation <20%) |
| Cc1cc(Nc2ncc(Cl)c(Nc3ccccc3S(=O)(=O)C(C)C)n2)c(OC(C)C)cc1C1CCNCC1 [ceritinib, reference compound] |  |  | no significant effect | no significant effect |  | effect on NPM-ALK fusion protein levels (NPM-ALK fusion protein; SU-DHL-1 cells, 30 nM or 100 nM): no effect; effect on ALK protein levels ([1]; NCI-H2228 cells, 100 nM): no distinct effect |
| Cc1cc(Nc2ncc(Cl)c(Nc3ccccc3S(=O)(=O)C(C)C)n2)c(OC(C)C)cc1C1CCN(CC(=O)NCCNc2cccc3c2C(=O)N(C2CCC(=O)N(C)C2=O)C3=O)CC1 (stereo not drawn) [CZ47-40, 2-(4-(4-((5-Chloro-4-((2-(isopropylsulfonyl)phenyl)amino)pyrimidin-2-yl)amino)-5-isopropoxy-2-methylphenyl)piperidin-1-yl)-N-(2-((2-(l-methyl-2,6-dioxopiperidin-3-yl)-1,3-dioxoisoindolin-4-yl)amino)ethyl)acetamide] |  |  | no significant effect | no significant effect | < 20 |  |
| Cc1cc(Nc2ncc(Cl)c(Nc3ccccc3S(=O)(=O)C(C)C)n2)c(OC(C)C)cc1C1CCN(CC(=O)NCCOCCOCCOCCOCCNc2cccc3c2C(=O)N(C2CCC(=O)NC2=O)C3=O)CC1 (stereo not drawn) [CZ40-53, 2-(4-(4-((5-Chloro-4-((2-(isopropylsulfonyl)phenyl)amino)pyrimidin-2-yl)amino)-5-isopropoxy-2-methylphenyl)piperidin-1-yl)-N-(14-((2-(2,6-dioxopiperidin-3-yl)-1,3-dioxoisoindolin-4-yl)amino)-3,6,9,12-tetraoxatetradecyl)acetamide] |  |  |  |  |  | Dmax at 0.03 µM (NPM-ALK fusion protein; [2]): > 80%; GI50 (SU-DHL-1 cells): < 40 nM; suppressing both ALK expression and ALK activity (ALK): especially effective |
| Cc1cc(Nc2ncc(Cl)c(Nc3ccccc3S(=O)(=O)C(C)C)n2)c(OC(C)C)cc1C1CCN(C(=O)CCCCC(=O)N[C@H](C(=O)N2C[C@@H](O)C[C@H]2C(=O)NCc2ccc(-c3scnc3C)cc2)C(C)(C)C)CC1 [HC58-112, (2S,4S)-1-((S)-2-(6-(4-(4-((5-chloro-4-((2-(isopropylsulfonyl)phenyl)amino)pyrimidin-2-yl)amino)-5-isopropoxy-2-methylphenyl)piperidin-1-yl)-6-oxohexanamido)-3,3-dimethylbutanoyl)-4-hydroxy-N-(4-(4-methylthiazol-5-yl)benzyl)pyrrolidine-2-carboxamide] | not | not |  |  | < 20 |  |
| Cc1cc(Nc2ncc(Cl)c(Nc3ccccc3S(=O)(=O)C(C)C)n2)c(OC(C)C)cc1C1CCN(CC(=O)NCCCCCCCCCCC(=O)NC(C(=O)N2CC(O)CC2C(=O)NCc2ccc(-c3scnc3C)cc2)C(C)(C)C)CC1 [CZ40-94, (2S,4R)-1-((S)-2-((11-(2-(4-(4-((5-Chloro-4-((2-(isopropylsulfonyl)phenyl)amino)pyrimidin-2-yl)amino)-5-isopropoxy-2-methylphenyl)piperidin-1-yl)acetamido)undecanamido)-3,3-dimethylbutanoyl)-4-hydroxy-N-(4-(4-methylthiazol-5-yl)benzyl)pyrrolidine-2-carboxamide] |  |  |  |  |  | ALK fusion protein degradation, SU-DHL-1 (30 nM) (NPM-ALK fusion protein; [2]): + (Protein degradation 20-80%) |
| Cc1cc(Nc2ncc(Cl)c(Nc3ccccc3S(=O)(=O)C(C)C)n2)c(OC(C)C)cc1C1CCN(CC(=O)NCCOCCOCCOCCOCCOCCNc2cccc3c2C(=O)N(C2CCC(=O)N(C)C2=O)C3=O)CC1 (stereo not drawn) [CZ47-48, 2-(4-(4-((5-Chloro-4-((2-(isopropylsulfonyl)phenyl)amino)pyrimidin-2-yl)amino)-5-isopropoxy-2-methylphenyl)piperidin-1-yl)-N-(17-((2-(l-methyl-2,6-dioxopiperidin-3-yl)-1,3-dioxoisoindolin-4-yl)amino)-3,6,9,12,15-pentaoxaheptadecyl)acetamide] |  |  | no significant effect | no significant effect | < 20 |  |
| Cc1cc(Nc2ncc(Cl)c(Nc3ccccc3S(=O)(=O)C(C)C)n2)c(OC(C)C)cc1C1CCN(C(=O)CCCC(=O)N[C@H](C(=O)N2C[C@@H](O)C[C@H]2C(=O)NCc2ccc(-c3scnc3C)cc2)C(C)(C)C)CC1 [HC58-111, (2S,4S)-1-((S)-2-(5-(4-(4-((5-Chloro-4-((2-(isopropylsulfonyl)phenyl)amino)pyrimidin-2-yl)amino)-5-isopropoxy-2-methylphenyl)piperidin-1-yl)-5-oxopentanamido)-3,3-dimethylbutanoyl)-4-hydroxy-N-(4-(4-methylthiazol-5-yl)benzyl)pyrrolidine-2-carboxamide] | not | not |  |  | < 20 |  |
| Cc1cc(Nc2ncc(Cl)c(Nc3ccccc3S(=O)(=O)C(C)C)n2)c(OC(C)C)cc1C1CCN(CC(=O)NCCCCCCCCC(=O)N[C@H](C(=O)N2C[C@H](O)C[C@H]2C(=O)NCc2ccc(-c3scnc3C)cc2)C(C)(C)C)CC1 [CZ40-92, (2S,4R)-1-((S)-2-(9-(2-(4-(4-((5-Chloro-4-((2-(isopropylsulfonyl)phenyl)amino)pyrimidin-2-yl)amino)-5-isopropoxy-2-methylphenyl)piperidin-1-yl)acetamido)nonanaimdo)-3,3-dimethylbutanoyl)-4-hydroxy-N-(4-(4-methylthiazol-5-yl)benzyl)pyrrolidine-2-carboxamide] |  |  |  |  |  | Dmax at 0.03 µM (NPM-ALK fusion protein; [2]): < 20% |
